According to patent US20240393292A1, “ALLERGY ANTIGEN AND EPITOPE THEREOF” (HOYU CO., LTD., priority 2019, published 2024):
Entries after “also recorded” stand apart in the source; their conditions may differ.

Assays:
[1] = test system: IgE antibodies from patients having allergies to each food; experiment: Confirmation of epitope cross-reactivity by ELISA with biotinylated peptides; format: binding, human
Source text: Amino acids other than amino acids important for maintaining binding to IgE antibodies, in each of the epitope sequences found in the wheat proteins in Table 2 were defined as any given amino acid (X). NCBI was searched for proteins having the key sequences having the amino acid residues X in cooking ingredient allergens carried in common by each of the patients. As a result, an amino acid sequence contained in a sequence in each food described in the column “Food with which cross-reactivity was confirmed” in Table 2 was identified as one example.
The binding activity of peptides comprising the amino acid sequences described in the column “Synthesis sequence” and the rightmost column “SEQ ID NO” of Table 2 against IgE antibodies from patients having allergies to each food described in the column “Food with which cross-reactivity was confirmed” in Table 2 was confirmed by ELISA. The peptides were synthesized such that the peptides were N-terminally biotinylated by the Fmoc method.
To be specific, ELISA was carried out according to the following procedure. • (1) The concentrations of the biotinylated peptides were adjusted to 10 μg/mL with PBST (0.1% Tween 20). • (2) Each peptide solution was added at 20 μL to each well of a 384-well plate coated with streptavidin, and shaken at room temperature for one hour. After collection of the solution, the wells were washed with PBST five times. • (3) Pierce Protein-Free (PBS) Blocking Buffer (produced by Thermo) was added at 40 μL thereto and shaken at room temperature for one hour. After removal of the solution, the wells were washed with PBST five times. • (4) 2% serum/Canget SignalSolution I (produced by TOYOBO) was added at 20 μL thereto and shaken at room temperature for one hour. After removal of the solution, the wells were washed with PBST five times. • (5) A diluted secondary antibody solution (1:10000, Canget SignalSolution II (produced by TOYOBO)) was added at 20 μL thereto and shaken at room temperature for one hour. After removal of the solution, the wells were washed with PBST five times. • (6) 1-Step Ultra TMB-ELISA (produced by Thermo) was added at 20 μL thereto and shaken at room temperature for 15 minutes. • (7) 2 M H2SO4 was added at 20 μL thereto. Absorbance at 450 nm was measured.
Peptides having these amino acid sequences were prepared by the same procedure as described in Example 4 (A), and the presence or absence of binding thereto of IgE antibodies present in the serum of an allergic patient and the serum of a nonallergic subject was measured. The serum of two nonallergic subjects was measured, and values obtained by dividing the measurement values by an average value thereof were used.
The bar graph of each figure depicts “absorbance of the allergic patient/absorbance of the nonallergic patient (healthy subject)”. The names of the cooking ingredients described in each graph are the names of cooking ingredients containing a polypeptide comprising an amino acid sequence serving as the basis of each synthetic sequence used.

[2] = test system: IgE antibody present in the serum of a wheat-allergic patient; experiment: Wheat epitope mapping (1): peptide array of overlapping 15-amino-acid peptides, chemiluminescence; format: binding, human; conditions: bound = chemiluminescence value minus N2nd value of 5 non-wheat-allergic subjects at least 35,000; serum of 49 patients
Protocol: Epitope mapping was carried out using a library of overlapping peptides (length: 15 amino acids) corresponding to the amino acid sequences identified as allergy components of wheat. Specifically, the library of overlapping peptides was prepared on the basis of the amino acid sequences of SEQ ID NOs: 2, 4, 6, 8, 10, 12, 14, 16, 18, 20, 22, 24, 26 and 28.
The peptides to be synthesized were shifted by 10 amino acids.
For preparation of peptide arrays, the Intavis CelluSpots™ technique was used. Specifically, the peptide arrays were prepared by the following procedure: (1) synthesizing peptides of interest on amino-modified cellulose disks using an automated chemical synthesis apparatus (Intavis MultiPep RS), (2) dissolving the amino-modified cellulose disks to obtain a cellulose-bound peptide solution, and (3) spotting the cellulose-bound peptides onto coated glass slides. The details of each procedure are as described below.
Peptide synthesis was carried out in incremental steps through 9-fluorenylmethoxycarbonyl (Fmoc) chemical reaction on amino-modified cellulose disks in 384-well synthesis plates. Specifically, amino acids in which a Fmoc group is bonded to an amino group were activated in a solution of N,N′-diisopropylcarbodiimide (DIC) and 1-hydroxybenzotriazole (HOBt) in dimethylformamide (DMF) and added dropwise to the cellulose disks so that the Fmoc group-bound amino acids were bound to the amino groups on the cellulose disks (coupling). Unreacted amino groups were capped with acetic anhydride and washed with DMF. Furthermore, the Fmoc groups were eliminated from the amino groups of the amino acids bound to the amino groups on the cellulose disks by treatment with piperidine and washing with DMF. The amino acids bound to the amino groups on the cellulose disks were repetitively subjected to the coupling, the capping, and the Fmoc group elimination described above to elongate the amino terminus for peptide synthesis.
The peptides-bound cellulose disks of interest obtained above in the subsection titled “(1) Synthesis of peptide” were transferred to 96-well plates and treated with a side chain deprotection mixed solution of trifluoroacetic acid (TFA), dichloromethane, triisopropylsilane (TIPS), and water for deprotection of amino acid side chains. Then, the deprotected cellulose-bound peptides were dissolved in a mixed solution of TFA, […] acid (TFMSA), TIPS, and water and precipitated in […] methyl ether (TBME), and the precipitate was resuspended in dimethyl sulfoxide (DMSO) and mixed with a mixed solution of NaCl, sodium citrate, and water to obtain a peptide solution for slide spotting.
The peptide solution for slide spotting obtained above in the subsection titled “(2) Dissolution of amino-modified cellulose disk” was spotted onto Intavis CelluSpots™ slides using Intavis Slide Spotting Robot, and the slides were dried to prepare peptide arrays.
The presence or absence of binding, to each peptide fragment, of an IgE antibody present in the serum of a wheat-allergic patient was measured through antigen-antibody reaction using the peptide arrays. […]

[3] = synthetic sequence, Graph No. 3, epitope of patient P8

| binding of patient-specific IgE antibodies to 15-residue peptide [2] | Substance | other results |
| --- | --- | --- |
| – | 29 (QQILWYHQQQPIQQQ; REGION 1..15: note = epitope) [compound 29] | Food in which cross-reactivity was confirmed ([1]; serum IgE of patient P7 (WDEIA), epitope E1, LMW-D8(LMW-GS) B2BZD1, Spot No. 9, key sequence XXXXXXXQXXXIQQX (SEQ ID NO 45), Graph No. 1): Wheat; Food in which cross-reactivity was confirmed ([1]; serum IgE of patient P13 (WDEIA), epitope E1, LMW-D8(LMW-GS) B2BZD1, Spot No. 9, key sequence XXXXXYXQXXXIQQX (SEQ ID NO 62), Graph No. 1): Wheat; Food in which cross-reactivity was confirmed ([1]; serum IgE of patient P36 (WDEIA), epitope E1, LMW-D8(LMW-GS) B2BZD1, Spot No. 9, key sequence XXXXXXXQXXXIQQX (SEQ ID NO 122), Graph No. 1): Wheat |
| – | 2881 (QEQQQYYPQQQAFFL; REGION 1..15: note = epitope) [compound 2881] | Food in which cross-reactivity was confirmed ([1]; serum IgE of patient P4 (WDEIA), epitope E3, LMW-D8(LMW-GS) B2BZD1, Spot No. 9, key sequence XXXQQXXPQQXXXXX (SEQ ID NO 203), Graph No. 1): Orchard grass; Food in which cross-reactivity was confirmed ([1]; serum IgE of patient P10 (WDEIA), epitope E3, LMW-D8(LMW-GS) B2BZD1, Spot No. 9, key sequence XXXQQXXPQQQXXXX (SEQ ID NO 220), Graph No. 1): Orchard grass; Food in which cross-reactivity was confirmed ([1]; serum IgE of patient P32 (WDEIA), epitope E3, LMW-D8(LMW-GS) B2BZD1, Spot No. 9, preferred sequence XXQQQXFPQQQXXXX (SEQ ID NO 268), Graph No. 1): Orchard grass |
| – | 2889 (ILFEETLYQS; REGION 1..10: note = epitope) [compound 2889] | Food in which cross-reactivity was confirmed ([1]; epitope E10 (Fructose-bisphosphate aldolase W5CCA9), listed under patient P8, Graph No. 3): Wheat/rye/barley |
| – | 2910 (SLAEYTVRTLQRTVP; REGION 1..15: note = epitope) [compound 2910] | Food in which cross-reactivity was confirmed ([1]; Graph No. 2, synthetic sequence listed under patient P16): Wheat/rye/barley/; also recorded: timothy |
| – | 2922 (GIDKRV; REGION 1..6: note = epitope) [compound 2922] | Food in which cross-reactivity was confirmed [1, 3]: Wheat/barley |
| – | 2923 (KRVIERFEK; REGION 1..9: note = epitope) [compound 2923] | Food in which cross-reactivity was confirmed [1, 3]: Wheat/barley |
| – | GLFGTN (GIFGTN) | Food in which cross-reactivity was confirmed ([1]; synthetic sequence tested for IgE binding by ELISA, Graph No. 3, epitope row of patient P8): Wheat/barley/rye 3 |
| – | NEPSQLSLDQNAQGL | Food in which cross-reactivity was confirmed ([1]; epitope E16 (Fructose-bisphosphate aldolase W5CCA9, Spot No. 4), patient P21, key sequence XXXXQXXXDQNXXXX (SEQ ID NO 1144), Graph No. 2): timothy |
| confirmed to bind | SEQ ID NO: 2068: common 15-residue epitope sequence of polypeptide (E35) (PPYCTIAPFGIFGTN; REGION 1..15: note = epitope) | – |
| confirmed to bind | SEQ ID NO: 2154: common 15-residue epitope sequence of polypeptide (E36) (YSQPQQPISQQQQQQ; REGION 1..15: note = epitope) | – |
| confirmed to bind | SEQ ID NO: 2217: common 15-residue epitope sequence of polypeptide (E37) (VSRLLRGIRNYRVAI; REGION 1..15: note = epitope) | – |
| confirmed to bind | SEQ ID NO: 2265: common 15-residue epitope sequence of polypeptide (E38) (LGGIDKRVIERFEKE; REGION 1..15: note = epitope) | – |
| confirmed to bind | SEQ ID NO: 2309: common 15-residue epitope sequence of polypeptide (E39) (QSRYDAIRAIIYSIV; REGION 1..15: note = epitope) | – |
| confirmed to bind | SEQ ID NO: 2342: common 15-residue epitope sequence of polypeptide (E40) (HDIDRCAYVTEIVLA; REGION 1..15: note = epitope) | – |
| confirmed to bind | SEQ ID NO: 2419: common 15-residue epitope sequence of polypeptide (E41) (QSTLKAWSGKTENEE; REGION 1..15: note = epitope) | – |
| confirmed to bind | SEQ ID NO: 2491: common 15-residue epitope sequence of polypeptide (E42) (SSQVSFQPSQLNPQA; REGION 1..15: note = epitope) | – |
| confirmed to bind | SEQ ID NO: 2545: common 15-residue epitope sequence of polypeptide (E43) (LQQSTYQLVQQLCCQ; REGION 1..15: note = epitope) | – |
| confirmed to bind | SEQ ID NO: 2613: common 15-residue epitope sequence of polypeptide (E44) (SAKPLLASLSKRVLT; REGION 1..15: note = epitope) | – |
| confirmed to bind | SEQ ID NO: 2631: common 15-residue epitope sequence of polypeptide (E45) (RFEKEAAEMNKRSFK; REGION 1..15: note = epitope) | – |
| confirmed to bind | SEQ ID NO: 2674: common 15-residue epitope sequence of polypeptide (E46) (YKGPTLLEALDQINE; REGION 1..15: note = epitope) | – |
| confirmed to bind | SEQ ID NO: 2701: common 15-residue epitope sequence of polypeptide (E47) (VYKIGGIGTVPVGRV; REGION 1..15: note = epitope) | – |
| confirmed to bind | SEQ ID NO: 2774: common 15-residue epitope sequence of polypeptide (E48) (FLKNGDAGIVKMIPT; REGION 1..15: note = epitope) | – |
| confirmed to bind | SEQ ID NO: 2809: common 15-residue epitope sequence of polypeptide (E49) (VYSANTHRSKWFRVV; REGION 1..15: note = epitope) | – |
| confirmed to bind | SEQ ID NO: 2830: common 15-residue epitope sequence of polypeptide (E50) (YIVVEGRDGYFEMAC; REGION 1..15: note = epitope) | – |
